Test results reported in patent US12502362B2, “Inhibitors of nucleotidyltransferase superfamily enzymes as antibiotics” (priority 2017, dated 2025).
Converted amounts (≈) assume the structure as drawn. Counter-ions that a name gives are not always drawn. Like-named read-outs stand apart in the source and are kept apart here.

What was measured:
[1] = Cytotoxicity assay (CC50), MTS; type: cell-based, human; settings: human, HEPDES19 cells
Procedure: (§1) To further characterize the compounds, the minimal inhibitory concentration (MIC80) were determined for selected compounds. MIC80 is defined as the compound concentration at which ≥80% bacterial growth is inhibited compare to untreated controls. Meanwhile, for the selected compounds, cytotoxicity assays (CC50) were performed on a HepG2-derived hepatoblastoma cell line (HEPDES19). […] For CC50 evaluation, soluble tetrazolium dye (MTS) was used to measure mitochondrial toxicity in a human hepatoblastoma cell line (18). The bacteria (E. coli, S. saprophyticus and A. baumannii) used in MIC80 measurements were the same as that in the primary screening, but for Staphylococcus, S. aureus is used primarily because it is a common pathogen in Staphylococcaeae family, while S. saprophyticus is part of the normal human flora.

[2] = test system: HepG2-derived hepatoblastoma cell line (HEPDES19); assay: Cytotoxicity assay (CC50), MTS; type: cell-based, human; settings: HEPDES19 cells
Procedure: as §1

[3] = test system: Staphylococcus saprophyticus (ATCC BAA-750); assay: MIC80 on S. saprophyticus; type: cell-based; settings: S. saprophyticus ATCC BAA-750, read-out: MIC80 S. sapro
Procedure: as §1

E. coli (ATCC 35218) = assay: microbe, parasite or virus in culture; type: cell-based; settings: for MIC80: Escherichia coli, ATCC35218, read-out: MIC80 E. coli, E. coli ATCC 35218; for MIC80 E. coli: E. coli ATCC 35218
Procedure: as §1

[4] = test system: S. aureus and/or S. saprophyticus; assay: MIC80 on S. aureus and/or S. saprophyticus; type: cell-based; settings: read-out: MIC80 against S. aureus and/or S. saprophyticus
Procedure: as §1, with “(HEPDES19). […] For the MIC80 measurements, a 1.5 fold dilution series of the compounds was prepared in Mueller-Hinton II broth.” for “(HEPDES19).”, “flora. S. aureus (ATCC 29213) is methicillin-sensitive Staphylococcus aureus (MSSA) strain and it was used as a model strain to measure the MIC80.” for “flora.”

S. aureus (ATCC 29213) = assay: MIC80 on S. aureus; type: cell-based, Staphylococcus aureus; settings: ≥80% growth inhibition; for MIC80: Staphylococcus aureus, ATCC 29213 / MSSA, read-out: MIC80 S. aureus, S. aureus ATCC 29213 (MSSA); for MIC80 S. aureus: S. aureus ATCC 29213 (MSSA)
Procedure: as §1

[5] = test system: Acinetobacter baumannii (Abl, from a patient); assay: microbe, parasite or virus in culture; type: cell-based; settings: Acinetobacter baumannii, read-out: MIC80 A. baumannii, A. baumannii Ab1, MDR patient isolate
Procedure: as §1

[6] = HepG2-derived hepatoblastoma cell line (HEPDES19)
[7] = Staphylococcus saprophyticus, ATCCBAA750

Row | Compound | CC50 [1, 6] | CC50 [2] | MIC80 [3, 7] | MIC80 (E. coli (ATCC 35218)) | MIC80 [4] | MIC80 (S. aureus (ATCC 29213)) | CC50 [1] | MIC80 [5] | MIC80 [3] | MIC80 E. coli (E. coli (ATCC 35218)) | MIC80 S. aureus (S. aureus (ATCC 29213))
1 | O=c1ccc2ccccc2n1O [Compound 43] | > 50 µM | ≥ 100 µM | 11.4 µM (≈ 1.84 µg/mL) | 111 µM (≈ 17.9 µg/mL) | < 20 µM | 13.2 µM (≈ 2.13 µg/mL) |  |  |  |  | 
2 | CC(C)c1ccc(O)c(=O)c(O)c1 [Compound 46] |  |  | 29.6 µM (≈ 5.33 µg/mL) | 44.4 µM (≈ 8 µg/mL) | < 20 µM | 19.8 µM (≈ 3.57 µg/mL) | < 50 µM | 100 µM (≈ 18 µg/mL) |  |  | 
3 | O=C(Oc1cccccc1=O)c1ccc([N+](=O)[O-])cc1 [Compound 51] | > 50 µM | 56 µM | 15.1 µM (≈ 4.1 µg/mL) | 167 µM (≈ 45.2 µg/mL) | < 20 µM | 16.5 µM (≈ 4.48 µg/mL) |  |  |  |  | 
4 | O=c1cccccc1O [Compound 53] |  | ≥ 100 µM |  |  |  |  |  |  | 8.8 µM (≈ 1.07 µg/mL) | >100 µM | 11.7 µM (≈ 1.43 µg/mL)
5 | O=c1ccccc(Br)c1O [Compound 54] | > 50 µM |  | 14.9 µM (≈ 3 µg/mL) | 70.4 µM (≈ 14.2 µg/mL) | < 20 µM | 16.1 µM (≈ 3.24 µg/mL) |  | 44.4 µM (≈ 8.93 µg/mL) |  |  | 
6 | O=C(Oc1cccccc1=O)c1ccccc1 [Compound 62] | > 50 µM |  | 10.3 µM (≈ 2.33 µg/mL) | 111 µM (≈ 25.1 µg/mL) | < 20 µM | 19.8 µM (≈ 4.48 µg/mL) |  | 83.4 µM (≈ 18.9 µg/mL) |  |  | 
7 | CC(C)C(CO)n1cc(C(=O)O)c(=O)c2cc(Cc3cccc(Cl)c3F)c(F)cc21 (stereo not shown) [Compound 75] |  | 28 µM |  |  |  |  |  |  | 15.1 µM (≈ 6.58 µg/mL) | 100 µM (≈ 43.6 µg/mL) | 8.8 µM (≈ 3.84 µg/mL)
8 | Cc1cc(O)c(=O)c(O)cc1-c1ccc(Br)cc1 [Compound 114] | < 50 µM | 38 µM |  |  | < 20 µM | 19.8 µM (≈ 6.08 µg/mL) |  |  |  |  | 
9 | Cc1cc(O)c(=O)c(O)cc1C(=O)C1CCCCC1 [Compound 120] | < 50 µM |  |  | 44.4 µM (≈ 11.6 µg/mL) | < 20 µM | 19.8 µM (≈ 5.19 µg/mL) |  | 83.4 µM (≈ 21.9 µg/mL) |  |  | 
10 | CC1=C(C#N)C(O)=NC(=O)/C1=C\c1ccc(-c2ccccc2)o1 [Compound 140] | < 50 µM | 42 µM | 12.7 µM (≈ 3.86 µg/mL) | > 100 µM | < 20 µM | 3.9 µM (≈ 1.19 µg/mL) |  |  |  |  | 
11 | O=c1cc(Cc2ccc(Br)cc2)c2cccnc2n1O [Compound 149, 4-[(4-bromophenyl)methyl]-1-hydroxy-1,8-naphthyridin-2-one hydrobromide] |  |  | 2.5 µM | > 100 µM |  |  |  |  |  |  | 
12 | O=c1cc(-c2ccccc2)c2cccnc2n1O [Compound 154, 1-hydroxy-4-phenyl-1,8-naphthyridin-2-one] | 4 µM |  | 17.8 µM (≈ 4.24 µg/mL) | < 30 µM | < 20 µM |  |  |  |  | 21.9 µM (≈ 5.22 µg/mL) | 
13 | O=c1c(O)ccc(-c2ccccc2)cc1O [Compound 262] | > 50 µM | 57 µM | 19.8 µM (≈ 4.24 µg/mL) | 66.7 µM (≈ 14.3 µg/mL) | < 20 µM | 19.8 µM (≈ 4.24 µg/mL) |  | 100 µM (≈ 21.4 µg/mL) |  |  | 
